Assay results from US11021529B2, “Antimicrobial constructs and uses thereof” (priority 2017, dated 2021).
≈ marks a conversion by molar mass, not a printed value. Like-named read-outs stand apart in the source and are kept apart here.

Legend:
Format in all cases: cell-based
[1] = tested on: P. aeruginosa; assay: Super-resolution microscopy of membrane association and permeabilization; conditions: fluorescently labeled peptide or potentiator
Text: In order to identify peptides which would improve the penetration of small molecules into bacteria library of 30 peptide-linezolid conjugates was synthesized using antimicrobial peptides curated from literature. Linezolid is a small molecule that is normally unable to kill gram-negative bacteria due to its inability to cross the membrane. The peptide-linezolid library was screened in a growth inhibition assay in P. aeruginosa. […] WLBU2 is part of a family of helical cationic peptides that were designed to specifically kill P. aeruginosa. Other members of this peptide family, WLBU1 and LBU2, were synthesized in tandem with P. aeruginosa targeting peptides (P9b and EKR) and conjugated to linezolid. These peptide-drug conjugates were evaluated for their ability to inhibit P. aeruginosa and cross validated for mammalian cell toxicity.
To visualize membrane permeabilization of WLBU2, P. aeruginosa was incubated with Alexa Fluor 488-labeld WLBU2 potentiator for 15 minutes and subsequently washed 2 times with phosphate buffer solution to remove unbound potentiator. Bacteria were then stained with a membrane dye.

[2] = tested on: P. aeruginosa strain PA14; assay: MIC in wild-type P. aeruginosa strain PA14 (Table 3); conditions: Pseudomonas aeruginosa
[3] = tested on: P. aeruginosa strain PA01; assay: MIC in wild-type P. aeruginosa strain PA01 (Table 3); conditions: Pseudomonas aeruginosa
[4] = tested on: P. aeruginosa strain Z61; assay: MIC in hyperpermeable P. aeruginosa strain Z61 (Table 3); conditions: Pseudomonas aeruginosa
[5] = tested on: P. aeruginosa; assay: Checkerboard assays (fractional inhibitory concentration indices) with WLBU2 potentiator; conditions: drug combined with WLBU2 potentiator (W2-grafted dextran)
Text: In some embodiments, checkerboard assays can be used to determine if two antimicrobial agents have synergy, additive, or antagonistic effects when dosed together. Checkboard assays determine the interaction and potency of two test articles when used concurrently. Using Lorian methodology, the effect on potency of the combination of antimicrobials in comparison to their individual activities, represented as the Fractional Inhibitory Concentration (FIC) index value. To quantify the interactions between the antimicrobials being tested, the FIC index (the combination of antimicrobials that produced the greatest change from the individual antimicrobial's MIC) value is calculated for each strain and antimicrobial combination: (A/MICA)+(B/MICB)=FICA+FICB=FIC Index, where A and B are the MIC of each antimicrobial in combination (in a single well), and MICA and MICB are the MIC of each antimicrobial individually.

[6] = tested on: P. aeruginosa strain PA01; assay: Growth (MIC) assay in P. aeruginosa strain PA01; conditions: peptide concentration range 0-5 μM
Procedure: The minimal inhibitory concentrations (MIC) were measured in P. aeruginosa and cell viability in mammalian cells at a peptide concentration range between 0-5 μM. Toxicity was evaluated in NIH 3T3 mouse fibroblasts and Neuro-2a neuroblastoma. To negatively select against tandem peptides that may cause red blood lysis when administered in animals, the peptides were also screened in a hemolysis assay. In the range of concentrations tested, no membrane-active peptide had inhibitory activity against bacteria when not in tandem with dKK (FIG. 2), supporting the rationale of the tandem peptide architecture. At these concentrations, dKK alone also had no activity against P. aeruginosa (FIG. 2). Since it is advantageous to identify antibacterial agents which have narrow-spectrum activity, antibacterial efficacy against other gram-negative bacterial species (E. coli) and a gram-positive bacterial species (S. aureus; FIG. 1B) was also assessed. The best performing tandem peptide was lactoferrin-dKK (LACT-dKK). Lactoferrin peptide ([…], SEQ ID NO: 1) is from a protein in the transferrin family with known membrane interactions with bacteria. […]
For each experiment, P. aeruginosa strain PA01 was started from a frozen glycerol stock and cultured overnight. […] The number of colony forming units (CFU) per mL was determined by titering cultures with known absorbance values. […]

Compound: RRWVRRVRRWVRRVVRVVRRWVRR (Synthetic WLBU2)
- localization in P. aeruginosa (super-resolution microscopy) [1]: able to associate with the membrane and localize to the cytosol

Compound: O=C(O)c1cn(C2CC2)c2cc(N3CCNCC3)c(F)cc2c1=O [Ciprofloxacin]
- MIC ([2]; P. aeruginosa strain PA14, read-out: MIC): 0.5 µg/mL (≈ 1.51 µM)
- MIC ([3]; P. aeruginosa strain PA01, read-out: MIC): 2 µg/mL (≈ 6.04 µM)
- MIC [4]: < 0.25 µg/mL

Compound: CO[C@@H]1[C@@H](OC(N)=O)[C@@H](O)[C@H](Oc2ccc3c(O)c(NC(=O)c4ccc(O)c(CC=C(C)C)c4)c(=O)oc3c2C)OC1(C)C [novobiocin]
- fractional inhibitory concentration indices (FICIs), interaction with WLBU2 potentiator [5]: synergy

Compound: C=C[C@]1(C)C[C@@H](OC(=O)CS[C@@H]2C[C@H]3CC[C@@H](C2)N3C)[C@]2(C)[C@H](C)CC[C@]3(CCC(=O)[C@H]32)[C@@H](C)[C@@H]1O [retapamulin]
- fractional inhibitory concentration indices (FICIs), interaction with WLBU2 potentiator [5]: synergy

Compound: CC(=O)NC[C@H]1CN(c2ccc(N3CCOCC3)c(F)c2)C(=O)O1 [Linezolid]
- MIC ([2]; PA14): > 128 µg/mL
- MIC ([3]; PA01): > 128 µg/mL
- MIC [4]: 8 µg/mL (≈ 23.7 µM)

Compound: D(KLAKLAK)2 (KLAKLAKKLAKLAK; D-amino acids; Synthetic - antimicrobial peptide comprised of D-amino acids) [dKK]
- inhibitory activity against bacteria / P. aeruginosa [6]: no activity
